# Tested on: T. rubrum strain F4520
# Assay: UV-Visual absorption spectra of MB incubated with T. rubrum
# Method: Referring to FIG. 5C, shown therein are UV-Visual absorption spectra of MB when incubated with T. rubrum. T. rubrum strain F4520 cubes were retrieved from −80° freezer, thawed at room temperature, and transferred to an Sabourand dextrose agar (SDA) plate, and distributed evenly on the SDA plate. The SDA plate was sealed by parafilm and moved into a 30° C. incubator until vigorous fungal growth was observed. Next, fungal mycelia were prepared, by transferring a 6.25 cm^2 culture from the SDA plate to a sterile blender cup and adding 200 mL sterile water. After 30 seconds of blending, varying amounts of blendate was pipetted into wells of a 96 well plate. […] The MB absorbance spectra was then measured by a photospectrometer.
# The more dilute the fungus, the higher the MB absorbance value (i.e., normalized absorbance), indicating higher amounts of free MB in the solution.
# A similar protocol was followed as described above for FIG. 5C, except that the concentration of T. rubrum in the solution was kept constant. MB absorbance was measured immediately (curve 502), 4 days (curve 504), and 7 days (curve 506) after mixing. Immediately after mixing, the MB absorbance peak is centered at ˜660 nm, corresponding to the absorption peak of MB alone in solution (see FIG. 5A). Over time, the intensity of the absorbance peak is lowered as MB is adsorbed to fungal cells, consistent with the curves in FIG. 5C.
structure (smiles),measurement,setting,value
"CN(C)c1ccc2nc3ccc(=[N+](C)C)cc-3sc2c1 [MB, Methylene Blue]",MB absorbance (normalized) with increasing fungal concentration,"0.01% v/v solution of MB, varying concentrations of T. rubrum",lower MB absorbance is observed
same,shift of MB absorbance peak over time,"0.25% v/v solution of MB with T. rubrum culture, immediately, 4 days, 7 days after mixing",observable blue-shifting of the MB absorbance peak over time

# Reference: patent US20260137815A1, “DIAGNOSTIC AND TREATMENT METHODS FOR ONYCHOMYCOSIS” (ToeFX Inc., priority 2022, published 2026)
